Laboratory results as given in US9750809B2, “Cancer treatment” (MOREX DEVELOPMENT PARTNERS LLP, priority 2012, dated 2017).

What was measured:
[1] = mouse, in vivo
Procedure: Direct current plasma-atomic emission spectroscopy [DCP-AES] (ARL/Fisons Model SS-7) was used (detection limit: 0.1 μg B/mL) to determine boron concentrations in tissues of individual mice. Samples (50-130 mg) were digested at 60° C. with sulfuric acid:nitric acid (1:1). Triton X-100 and water were added to give final concentrations of ˜50 mg tissue/mL, 15% total acid v/v and 5% Triton X-100 v/v. […] It is known that the ether linkages between the porphyrin and carborane cages remain intact in vivo.

[2] = system: SCCVII squamous cell carcinomas
Procedure: Mice were euthanized when the tumour volume reached 500 mm^3; and
SCCVII murine squamous cell carcinoma cells were cultured in D-MEM enriched with 10% fetal bovine serum, 1% penicillin/streptomycin and 1% L-glutamine. Only passages 1-3 were used to initiate tumours. Cells (2×10^5 in 0.05 mL of medium) were then implanted sc into the left thighs of 20-25 g female C3H mice (Charles River Laboratories, Wilmington, Mass.).
Due to the large number of animals to be dosed and irradiated, it was necessary to split the animals into two equally sized groups: Groups A and B. Animals in each Group A were injected on day 7 after tumour implantation, while animals in each Group B were injected on day 8 post tumour implantation.
The animals in Group A were irradiated 8 days, and those in Groups B were irradiated 9 days after tumour implantation. Mice were anesthetized (sodium pentobarbital, ˜60 μg/g i.p.) and positioned for irradiation with the tumour-bearing leg extended across a 2-cm diameter collimated irradiation port. Tumours were irradiated using a single dose fraction of 32 gy at a dose-rate of 2.0 Gy/min using a Philips RT-100 set, operating at 100 kVp and 8 mA.
Tumours were measured 2-3 times per week and the mice were killed humanely when the calculated tumour volume (x^2y/2, where x is the shorter surface dimension) exceeded 500 mm^3.
Dosimetry for X-irradiation was carried out using a thimble ionization chamber applying the 1996 IPEB code of practice.

[3] = 150 mg/kg MTL005 + 32 Gy vs 32 Gy alone
[4] = 150 mg/kg MTL005 i.p. one day prior to 32 Gy X-rays, 11 mice

With “copper meso-5,15-bis[3-[(1,2-dicarba-closo-dodecaboranyl)methoxy]phenyl]-meso-10,20-dinitroporphyrin [MTL005]” the “Retention of active sensitiser in the tumour after single administration” value [1] was “still a significant concentration of active sensitiser in the tumour”, the “Number of surviving mice compared with X-rays alone” value [2, 3] was “higher” and the “Tumour control compared with X-rays alone (Kaplan-Meier, FIG. 2)” value [2, 3] was “greater tumour control”. The “% Tumour control” value [2, 4] was 54.5%, the “Controlled tumours (volume of 0 mm^3), number of mice” value [2, 4] was 6 and the “Mice alive at 62 days with observable tumours” value [2, 4] was 2. The “Number of controlled tumours compared to radiation alone” value ([2]; 32 Gy) was “doubled”.
